pIC50: −log10 of the molar value. Like-named read-outs stand apart in the source and are kept apart here.
Columns and labels:
PI3K-alpha = PI3K-alpha (Homo sapiens, UniProt P42336); assay: Kinase inhibition assay, P-33 labelled ATP phosphate transfer, PI3K-alpha; type: biochemical; settings: for inhibition at 0.3 µM: read-out: PI3K-alpha (% Inh at 300 nM)
Method: (§1) The assays determined the amount of radioactive phosphate transferred from P-33 labelled ATP to the substrate by the enzyme in the presence of various concentrations of the inhibitor test compounds. […] After this time period the cells were serum starved for 5 hours followed by application of the test compound. Test compound was added as a DMSO (dimethyl sulfoxide) solution such that the final DMSO concentration in the cell media was less than or equal to 0.2% by volume. After 30 minutes of exposure the growth factor stimulant, human IGF-1 (Pepro Tech, Inc., Rocky Hill, N.J., Cat.#100-11), was added in each well. […] A SpectraMax Plus spectrophotometric plate reader (Molecular Devices, Sunnydale, Calif.) was used to measure the optical density signal for pAKT at 450 nm (OD450 nm). The pAKT OD450 nm readings were normalized by total protein amount in the cell lysates determined by standard methods. Concentrations of test compounds required to inhibit IGF stimulated pAKT levels to 50% of maximum levels in PC3 cells (termed DM50 for decreased maximum 50%) were calculated by inputting the dose responses in the software package GraphPad Prism4 (GraphPad Software, Inc., San Diego, Calif.).

PC3 cells = assay: PC3 cell proliferation (WST, 72 hours); type: cell-based; settings: Homo sapiens, read-out: PC3 cell proliferation(IC50 μM)
Method: The PC3 cell proliferation data in column 26 of Table 5 was obtained as follows: PC3 cells were obtained from the American Type Culture Collection (ATCC, Manassas, Va., Cat.#CRL-1435). Two thousand cells from the prostate cancer line PC3 were placed in 50 μL of complete RPMI 1640 media (Invitrogen, Carlsbad, Calif., Cat.#22400-105) with 10% fetal bovine serum, (Invitrogen, Carlsbad, Calif., Cat.#10438-026) into each well of 96-well cell culture plates in a hexaplicate sampling pattern. A 50 μL aliquot of test compound (prepared from stock test compounds in DMSO diluted into media) was added to the appropriate well such that the final concentrations of test compound were 200, 40, 8, 1.6, 0.32, 0.064, 0.0128, 0.00256, and 0 μM and the final DMSO concentration was less than or equal to 0.2% . The plates were incubated for 72 hours 37° C. in an atmosphere of 5% CO2. At the end of this time a 10 μL aliquot of WST solution (Roche Applied Science, Mannheim, Germany) was added into each of the wells. Cells were exposed to the WST solution for 4 hours. A SpectraMax Plus spectrophotometric plate reader (Molecular Devices, Sunnydale, Calif.) was then used to measure the optical density at 450 nm (OD450 nm). Sigmoidal curves were drawn for the dose responses and IC50 values were calculated using the software package GraphPad Prism4 (GraphPad Software, Inc., San Diego, Calif.).

PI3K-delta = PI3K-delta (Homo sapiens, UniProt O00329); assay: Kinase inhibition assay, P-33 labelled ATP phosphate transfer, PI3K-delta; type: biochemical; settings: for inhibition at 10 µM: read-out: PI3K-delta(% Inh at 10 μM); for inhibition at 0.3 µM: read-out: PI3K-delta(% Inh at 300 nM)
Method: as §1

PI3K-gamma = PI3K-gamma (Homo sapiens, UniProt P48736); assay: Kinase inhibition assay, P-33 labelled ATP phosphate transfer, PI3K-gamma; type: biochemical; settings: for inhibition at 10 µM: read-out: PI3K-gamma(% Inh at 10 μM); for inhibition at 0.3 µM: read-out: PI3K-gamma(% Inh at 300 nM)
Method: as §1

PLK-1 = PLK-1 (Homo sapiens, UniProt P53350); assay: Kinase inhibition assay, P-33 labelled ATP phosphate transfer, PLK-1; type: biochemical; settings: for inhibition at 10 µM: read-out: PLK-1(% Inh at 10 μM); for inhibition at 0.3 µM: read-out: PLK-1(% Inh at 300 nM)
Method: as §1

PIM-1 = PIM-1 (Homo sapiens, UniProt P11309); assay: Kinase inhibition assay, P-33 labelled ATP phosphate transfer, PIM-1; type: biochemical; settings: for inhibition at 10 µM: read-out: PIM-1(% Inh at 10 μM); for inhibition at 0.3 µM: read-out: PIM-1(% Inh at 300 nM)
Method: as §1

PI3K-beta = PI3K-beta (Homo sapiens, UniProt P42338); assay: Kinase inhibition assay, P-33 labelled ATP phosphate transfer, PI3K-beta; type: biochemical; settings: for inhibition at 10 µM: read-out: PI3K-beta(% Inh at 10 μM); for inhibition at 0.3 µM: read-out: PI3K-beta(% Inh at 300 nM)
Method: as §1

DNA-PK = DNA-PK (Homo sapiens, UniProt P78527); assay: Kinase inhibition assay, P-33 labelled ATP phosphate transfer, DNA-PK; type: biochemical; settings: for inhibition at 0.3 µM: read-out: DNA-PK(% Inh at 300 nM)
Method: as §1

mTOR = mTOR (Homo sapiens, UniProt P42345); assay: Kinase inhibition assay, P-33 labelled ATP phosphate transfer, mTOR; type: biochemical; settings: for inhibition at 10 µM: read-out: mTOR(% Inh at 10 μM); for inhibition at 0.3 µM: read-out: mTOR(% Inh at 300 nM)
Method: as §1

PI-3 kinases = settings: cited from earlier work

PI3K-beta, sequence (P42338 whole entry, species assumed): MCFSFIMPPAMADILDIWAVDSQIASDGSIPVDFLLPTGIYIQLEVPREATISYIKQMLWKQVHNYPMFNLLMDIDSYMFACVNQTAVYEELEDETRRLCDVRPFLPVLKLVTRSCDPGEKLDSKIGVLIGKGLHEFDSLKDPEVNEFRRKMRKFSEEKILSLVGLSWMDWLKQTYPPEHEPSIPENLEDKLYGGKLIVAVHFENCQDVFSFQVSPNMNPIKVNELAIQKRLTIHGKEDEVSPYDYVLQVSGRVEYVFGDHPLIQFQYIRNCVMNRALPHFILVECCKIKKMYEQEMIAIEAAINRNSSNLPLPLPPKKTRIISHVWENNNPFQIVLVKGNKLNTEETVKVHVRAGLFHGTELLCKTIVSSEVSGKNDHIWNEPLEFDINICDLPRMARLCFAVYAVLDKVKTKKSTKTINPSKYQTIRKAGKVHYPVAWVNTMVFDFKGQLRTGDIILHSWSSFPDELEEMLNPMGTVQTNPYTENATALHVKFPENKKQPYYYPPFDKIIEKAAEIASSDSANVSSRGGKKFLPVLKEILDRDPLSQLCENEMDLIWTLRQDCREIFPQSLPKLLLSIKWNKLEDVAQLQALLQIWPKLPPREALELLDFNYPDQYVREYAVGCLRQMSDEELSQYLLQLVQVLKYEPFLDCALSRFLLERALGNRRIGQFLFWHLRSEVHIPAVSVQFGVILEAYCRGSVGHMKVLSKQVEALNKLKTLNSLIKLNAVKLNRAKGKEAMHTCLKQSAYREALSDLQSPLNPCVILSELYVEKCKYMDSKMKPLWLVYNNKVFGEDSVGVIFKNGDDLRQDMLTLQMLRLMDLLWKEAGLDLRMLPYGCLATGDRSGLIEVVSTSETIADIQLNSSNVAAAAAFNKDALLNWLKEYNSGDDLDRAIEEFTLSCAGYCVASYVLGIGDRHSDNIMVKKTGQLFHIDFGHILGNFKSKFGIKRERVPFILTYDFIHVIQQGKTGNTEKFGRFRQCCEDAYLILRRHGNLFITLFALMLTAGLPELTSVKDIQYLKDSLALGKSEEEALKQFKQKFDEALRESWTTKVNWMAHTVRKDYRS
PI3K-beta, sequence (P27986 whole entry partner, species assumed): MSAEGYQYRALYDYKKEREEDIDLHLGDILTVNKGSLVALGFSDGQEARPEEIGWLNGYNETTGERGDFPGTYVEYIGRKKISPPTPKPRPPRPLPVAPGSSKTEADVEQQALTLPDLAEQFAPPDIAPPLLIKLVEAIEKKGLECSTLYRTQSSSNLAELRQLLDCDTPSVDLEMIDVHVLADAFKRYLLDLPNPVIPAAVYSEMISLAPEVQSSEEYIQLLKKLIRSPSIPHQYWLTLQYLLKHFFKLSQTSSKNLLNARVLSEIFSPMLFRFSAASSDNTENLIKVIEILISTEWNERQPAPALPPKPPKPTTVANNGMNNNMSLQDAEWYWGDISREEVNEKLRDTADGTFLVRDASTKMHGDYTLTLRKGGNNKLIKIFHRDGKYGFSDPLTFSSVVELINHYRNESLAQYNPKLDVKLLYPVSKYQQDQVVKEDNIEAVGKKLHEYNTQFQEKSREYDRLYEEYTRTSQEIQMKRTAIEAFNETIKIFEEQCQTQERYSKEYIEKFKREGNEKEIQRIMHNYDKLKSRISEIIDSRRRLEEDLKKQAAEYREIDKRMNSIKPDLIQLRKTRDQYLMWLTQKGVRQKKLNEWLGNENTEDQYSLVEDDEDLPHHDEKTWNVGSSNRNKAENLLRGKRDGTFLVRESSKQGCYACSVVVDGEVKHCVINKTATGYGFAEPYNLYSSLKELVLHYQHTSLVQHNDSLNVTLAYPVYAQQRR
PLK-1, sequence (P53350 whole entry, species assumed): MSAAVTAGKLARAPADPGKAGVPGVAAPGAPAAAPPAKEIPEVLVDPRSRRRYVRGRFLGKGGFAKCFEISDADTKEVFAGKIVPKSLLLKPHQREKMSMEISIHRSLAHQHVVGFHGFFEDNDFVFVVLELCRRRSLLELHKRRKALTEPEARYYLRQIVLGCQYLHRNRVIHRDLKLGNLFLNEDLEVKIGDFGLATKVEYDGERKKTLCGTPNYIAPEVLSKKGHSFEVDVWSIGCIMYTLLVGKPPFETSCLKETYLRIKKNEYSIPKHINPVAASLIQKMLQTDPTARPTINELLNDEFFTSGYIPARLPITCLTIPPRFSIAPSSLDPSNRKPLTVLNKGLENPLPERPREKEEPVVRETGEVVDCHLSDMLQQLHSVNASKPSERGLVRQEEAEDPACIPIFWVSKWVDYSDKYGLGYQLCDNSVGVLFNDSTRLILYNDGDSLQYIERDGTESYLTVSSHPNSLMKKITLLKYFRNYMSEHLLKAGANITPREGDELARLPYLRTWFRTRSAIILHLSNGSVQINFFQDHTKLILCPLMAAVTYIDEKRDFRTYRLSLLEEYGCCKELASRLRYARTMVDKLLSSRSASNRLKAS
PIM-1, sequence (P11309 whole entry, species assumed): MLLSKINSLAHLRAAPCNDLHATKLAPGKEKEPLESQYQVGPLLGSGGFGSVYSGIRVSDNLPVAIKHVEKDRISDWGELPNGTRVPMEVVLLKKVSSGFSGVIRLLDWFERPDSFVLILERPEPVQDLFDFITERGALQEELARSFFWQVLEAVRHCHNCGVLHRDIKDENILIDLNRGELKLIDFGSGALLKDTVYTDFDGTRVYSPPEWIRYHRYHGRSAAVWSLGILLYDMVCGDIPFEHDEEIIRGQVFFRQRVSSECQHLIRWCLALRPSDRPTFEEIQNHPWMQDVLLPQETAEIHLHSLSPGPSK
PI3K-delta, sequence (O00329 whole entry, species assumed): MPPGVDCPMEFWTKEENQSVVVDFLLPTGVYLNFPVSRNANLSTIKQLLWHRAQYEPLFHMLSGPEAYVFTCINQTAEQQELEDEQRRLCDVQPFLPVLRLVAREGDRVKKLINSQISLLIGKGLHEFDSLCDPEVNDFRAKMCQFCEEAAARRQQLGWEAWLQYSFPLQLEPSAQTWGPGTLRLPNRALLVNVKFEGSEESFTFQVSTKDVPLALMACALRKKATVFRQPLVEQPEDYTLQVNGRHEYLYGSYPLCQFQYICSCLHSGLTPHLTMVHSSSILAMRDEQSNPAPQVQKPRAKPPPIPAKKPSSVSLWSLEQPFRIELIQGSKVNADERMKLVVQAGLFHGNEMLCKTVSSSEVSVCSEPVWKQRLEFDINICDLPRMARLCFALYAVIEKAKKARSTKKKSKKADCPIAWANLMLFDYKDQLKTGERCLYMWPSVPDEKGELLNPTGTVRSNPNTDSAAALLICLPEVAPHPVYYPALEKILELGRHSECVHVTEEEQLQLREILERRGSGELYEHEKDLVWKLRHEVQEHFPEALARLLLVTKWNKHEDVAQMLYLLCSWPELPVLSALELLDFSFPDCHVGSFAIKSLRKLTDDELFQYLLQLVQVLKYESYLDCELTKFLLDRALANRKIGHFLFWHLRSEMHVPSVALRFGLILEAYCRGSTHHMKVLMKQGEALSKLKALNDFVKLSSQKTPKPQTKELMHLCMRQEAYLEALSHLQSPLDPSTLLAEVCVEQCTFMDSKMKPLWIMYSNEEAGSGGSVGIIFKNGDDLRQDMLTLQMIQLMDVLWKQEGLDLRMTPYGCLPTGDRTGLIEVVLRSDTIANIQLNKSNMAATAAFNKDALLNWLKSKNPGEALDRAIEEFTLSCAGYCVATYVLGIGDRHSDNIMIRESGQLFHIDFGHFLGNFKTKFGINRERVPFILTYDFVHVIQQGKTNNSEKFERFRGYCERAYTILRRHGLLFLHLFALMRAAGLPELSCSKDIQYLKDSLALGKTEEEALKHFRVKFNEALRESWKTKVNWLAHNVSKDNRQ
PI3K-delta, sequence (P27986 whole entry partner, species assumed): as the sequence (P27986 whole entry partner, species assumed) above
PI3K-alpha, sequence (P42336 whole entry, species assumed): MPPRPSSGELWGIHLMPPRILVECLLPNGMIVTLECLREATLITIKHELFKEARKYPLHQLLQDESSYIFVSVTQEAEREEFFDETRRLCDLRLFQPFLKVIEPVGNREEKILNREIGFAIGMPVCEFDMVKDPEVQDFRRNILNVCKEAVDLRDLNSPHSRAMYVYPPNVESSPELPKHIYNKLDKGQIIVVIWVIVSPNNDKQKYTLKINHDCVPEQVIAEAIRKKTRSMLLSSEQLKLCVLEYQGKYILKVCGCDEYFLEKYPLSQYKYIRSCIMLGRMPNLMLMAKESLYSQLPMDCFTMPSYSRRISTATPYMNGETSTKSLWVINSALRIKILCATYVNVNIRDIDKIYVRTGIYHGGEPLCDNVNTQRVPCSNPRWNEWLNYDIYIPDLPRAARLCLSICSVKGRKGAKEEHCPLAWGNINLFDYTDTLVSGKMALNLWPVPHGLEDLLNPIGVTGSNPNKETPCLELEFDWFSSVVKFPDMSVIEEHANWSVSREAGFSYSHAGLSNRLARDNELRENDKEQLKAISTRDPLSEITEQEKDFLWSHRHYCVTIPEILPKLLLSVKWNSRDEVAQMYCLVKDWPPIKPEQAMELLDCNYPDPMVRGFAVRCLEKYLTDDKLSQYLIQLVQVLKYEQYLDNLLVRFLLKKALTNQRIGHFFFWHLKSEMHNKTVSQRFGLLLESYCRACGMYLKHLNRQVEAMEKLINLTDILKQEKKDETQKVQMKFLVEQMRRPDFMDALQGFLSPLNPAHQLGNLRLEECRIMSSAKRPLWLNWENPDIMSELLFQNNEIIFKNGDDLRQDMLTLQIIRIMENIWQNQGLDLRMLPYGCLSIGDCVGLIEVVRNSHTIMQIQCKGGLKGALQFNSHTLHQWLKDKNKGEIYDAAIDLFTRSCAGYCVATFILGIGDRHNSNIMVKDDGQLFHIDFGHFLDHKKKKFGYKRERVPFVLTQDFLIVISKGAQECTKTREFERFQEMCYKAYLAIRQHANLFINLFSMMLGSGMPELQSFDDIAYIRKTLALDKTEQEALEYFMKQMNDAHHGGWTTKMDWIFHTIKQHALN
PI3K-alpha, sequence (P27986 whole entry partner, species assumed): as the sequence (P27986 whole entry partner, species assumed) above

Compound | IC50 (PC3 cells; PC-3, PC3 cells, 72 hours, WST) [µM] | inhibition at 10 µM (PI3K-delta) [%] | inhibition at 0.3 µM (PI3K-alpha) [%] | inhibition at 0.3 µM (PI3K-delta) [%] | inhibition at 0.3 µM (PLK-1) [%] | inhibition at 0.3 µM (mTOR) [%] | further results
O=c1nc(N2CCOCC2)[nH]c2c(-c3ccccc3)csc12 [Compound 5, 2-morpholino-7-phenylthieno[3,2-d]pyrimidin-4(1H)-one] | 246 | – | – | – | – | – | inhibition at 10 µM (PI3K-alpha; read-out: PI3K-alpha(% Inh at 10 μM)): 12%
O=c1nc(N2CCOCC2)[nH]c2c1cnn2C1CCCCC1 [Compound 8, 1-cyclohexyl-6-morpholino-1H-pyrazolo[3,4-d]pyrimidin-4(7H)-one] | – | 18 | 2 | – | – | – | inhibition at 10 µM (PI3K-gamma): 4.8%; inhibition at 10 µM (PLK-1): 3.4%; inhibition at 10 µM (PIM-1): 3.2%; inhibition at 10 µM (PI3K-beta): 9.2%; pIC50 (DNA-PK): 4.62; inhibition at 10 µM (mTOR): 11%
Cc1nc2c(=O)nc(N3CCOCC3)[nH]c2n1-c1ccccc1 [Compound 11, 8-methyl-2-morpholino-9-phenyl-3H-purin-6(9H)-one] | – | – | 2.6 | 32 | 0 | 0 | inhibition at 0.3 µM (PI3K-gamma): 0%; inhibition at 0.3 µM (PIM-1): 0%; inhibition at 0.3 µM (PI3K-beta): 0%; inhibition at 0.3 µM (DNA-PK): 0%
O=c1nc(N2CCOCC2)oc2c(-c3ccc4c(c3)OCCO4)csc12 [Compound 12] | 4.7 | – | 53 | 72 | 0 | 0 | –
COc1cccc(-c2csc3c(=O)nc(N4CCOCC4)oc23)c1 [Compound 13] | – | – | 6.8 | 0 | 0 | 0 | IC50 (PC3 cells; PC-3, 72 h): 94 µM
COc1ccc(-c2csc3c(=O)nc(N4CCOCC4)oc23)cc1 [Compound 14] | – | – | 19 | 27 | 0 | 0 | –
CN(C)c1ccc(-c2csc3c(=O)nc(N4CCOCC4)oc23)cc1 [Compound 15] | 20 | – | 11 | 33 | 0 | 0 | –
O=C(NCCN1CCOCC1)c1cccc(-c2csc3c(=O)nc(N4CCOCC4)oc23)c1 [Compound 16] | 31 | – | 16 | 17 | 0 | 0 | –
Nc1ccc(-c2csc3c(=O)nc(N4CCOCC4)oc23)cc1 [Compound 17] | 108 | – | 22 | 32 | 0 | 0 | –
O=c1nc(N2CCOCC2)oc2c(-c3cccnc3)csc12 [Compound 18] | – | – | 0 | 0 | 0 | 0 | –
O=c1nc(N2CCOCC2)oc2c(-c3ccoc3)csc12 [Compound 19] | – | – | 15 | 0 | 0 | 3 | –
COc1ccc(C#Cc2csc3c(=O)nc(N4CCOCC4)oc23)cc1 [Compound 20] | – | – | 0 | 0 | 0 | 0 | –
O=c1nc(N2CCOCC2)[nH]c2c1cnn2-c1ccccc1 [Compound 22] | 263 | 20 | 14 | – | – | 42 | inhibition at 10 µM (PI3K-gamma): 8%; inhibition at 10 µM (PIM-1): 45%
O=c1nc(N2CCOCC2)[nH]c2c1cnn2Cc1ccccc1 [Compound 23] | – | 0 | 6.6 | – | – | – | inhibition at 10 µM (PI3K-gamma): 15%; inhibition at 10 µM (PLK-1): 4.9%; inhibition at 10 µM (PIM-1): 2.1%; inhibition at 10 µM (PI3K-beta): 14%; pIC50 (DNA-PK): 4.62; inhibition at 10 µM (mTOR): 0%
CCOC(=O)Cn1ncc2c(=O)nc(N3CCOCC3)[nH]c21 [Compound 24] | 1.4 | 7.2 | 6.6 | – | – | – | inhibition at 10 µM (PI3K-gamma): 14%; inhibition at 10 µM (PLK-1): 7.5%; inhibition at 10 µM (PIM-1): 0.9%; inhibition at 10 µM (PI3K-beta): 22%; pIC50 (DNA-PK): 4.62; inhibition at 10 µM (mTOR): 0%
O=c1nc(N2CCOCC2)[nH]c2c1cnn2-c1ccccn1 [Compound 25] | – | 10 | 6.6 | – | – | – | inhibition at 10 µM (PI3K-gamma): 35%; inhibition at 10 µM (PLK-1): 2.6%; inhibition at 10 µM (PIM-1): 9.4%; inhibition at 10 µM (PI3K-beta): 4.7%; pIC50 (DNA-PK): 4.62; inhibition at 10 µM (mTOR): 0%
O=c1nc(N2CCOCC2)[nH]c2c1cnn2CCO [Compound 26] | – | 26 | 9 | – | – | – | inhibition at 10 µM (PI3K-gamma): 0.6%; inhibition at 10 µM (PLK-1): 3.3%; inhibition at 10 µM (PIM-1): 1.5%; inhibition at 10 µM (PI3K-beta): 14%; pIC50 (DNA-PK): 4.62; inhibition at 10 µM (mTOR): 0.5%
O=c1nc(N2CCOCC2)[nH]c2c1cnn2-c1ccc2c(c1)OCCO2 [Compound 27] | 149 | 50 | 30 | – | – | – | inhibition at 10 µM (PI3K-gamma): 48%; IC50 (PIM-1): 1 µM; inhibition at 10 µM (PI3K-beta): 12%; pIC50 (DNA-PK): 4.62; inhibition at 10 µM (mTOR): 4.4%
O=c1nc(N2CCOCC2)[nH]c2c1cnn2-c1ccc(Cl)cc1 [Compound 28] | – | 0 | 6.9 | – | – | – | –
Cc1nc2c(=O)nc(N3CCOCC3)[nH]c2n1Cc1ccccc1 [Compound 29] | – | – | 7 | 0 | 0 | 0 | inhibition at 0.3 µM (PI3K-gamma): 0%; inhibition at 0.3 µM (PIM-1): 0%; inhibition at 0.3 µM (PI3K-beta): 0%; inhibition at 0.3 µM (DNA-PK): 0%
Cc1nc2c(=O)nc(N3CCOCC3)[nH]c2n1-c1ccc(F)cc1 [Compound 30] | – | – | 4.7 | 32 | 0 | 0 | inhibition at 0.3 µM (PI3K-gamma): 3%; inhibition at 0.3 µM (PIM-1): 0%; inhibition at 0.3 µM (PI3K-beta): 14%; inhibition at 0.3 µM (DNA-PK): 0%
Cc1nc2c(=O)nc(N3CCOCC3)[nH]c2n1-c1ccc2[nH]ccc2c1 [Compound 31] | – | – | 7.5 | 8.7 | 0 | 0 | inhibition at 0.3 µM (PI3K-gamma): 7.5%; inhibition at 0.3 µM (PIM-1): 0%; inhibition at 0.3 µM (PI3K-beta): 2.5%; inhibition at 0.3 µM (DNA-PK): 0%
Cc1ccc(-n2c(C)nc3c(=O)nc(N4CCOCC4)[nH]c32)cc1 [Compound 32] | – | – | 0 | 15 | 0 | 0 | inhibition at 0.3 µM (PI3K-gamma): 1%; inhibition at 0.3 µM (PIM-1): 0%; inhibition at 0.3 µM (PI3K-beta): 0%; inhibition at 0.3 µM (DNA-PK): 0%
O=c1cc(N2CCOCC2)oc2c(-c3ccccc3)cccc12 [LY294002, 2-(4-morpholinyl)-8-phenyl-4H-1-benzopyran-4-one] | – | – | – | – | – | – | pIC50 (PI-3 kinases; C. J. Vlahos et al. 1994): 5.85
O=c1cc(N2CCNCC2)oc2c(-c3ccccc3)cccc12 [LY303511] | – | – | – | – | – | – | PI3K inhibition activity (PI-3 kinases; C. Vlahos et al. 1994): lose all PI3K inhibition activity

Source: patent US10174032B2, “Heterocyclic compound classes for signaling modulation” (SignalRx Pharmaceuticals, Inc., priority 2014, dated 2019)
